This is an account of results in PMC8007633, “The effect of Aspalathus linearis (Burm.f.) R.Dahlgren and its compounds on tyrosinase and melanogenesis” (Scientific Reports, 2021).

In general, IC50 refers to the concentration that inhibits the measured activity by half. For orientation: EC50 means the concentration giving half of the maximal effect. Broadly, the Km is the concentration of substrate that gives half-maximal velocity.

≈ marks a conversion by molar mass, not a printed value. Where two headings read alike, the source gives them in different places. Starred links: 1 amine or outer side, 2 acyl side, 3 side chain; linkers in the order of their positions; H or OH if unused. Positions of bridges follow the written chain, without caps; N, C: chain ends. Non-standard residues stand in square brackets, D forms with d. Residues, ends and D or L forms follow the SMILES beside them. Chains are numbered I, II in the order given. Actinocin(9to1) = Cc1c2oc3c(C)ccc(C(=O)[*:1])c3nc-2c(C(=O)[*:2])c(N)c1=O; NMeV = CN[C@H](C(=O)O)C(C)C; Sar = CNCC(=O)O

The target in assay [1] is T1, mushroom tyrosinase (Agaricus bisporus, UniProt C7FF04).
T1 construct: purchased Sigma-Aldrich Co. LLC, St. Louis, MO, USA
T1 sequence (C7FF04 1-392 limits assumed): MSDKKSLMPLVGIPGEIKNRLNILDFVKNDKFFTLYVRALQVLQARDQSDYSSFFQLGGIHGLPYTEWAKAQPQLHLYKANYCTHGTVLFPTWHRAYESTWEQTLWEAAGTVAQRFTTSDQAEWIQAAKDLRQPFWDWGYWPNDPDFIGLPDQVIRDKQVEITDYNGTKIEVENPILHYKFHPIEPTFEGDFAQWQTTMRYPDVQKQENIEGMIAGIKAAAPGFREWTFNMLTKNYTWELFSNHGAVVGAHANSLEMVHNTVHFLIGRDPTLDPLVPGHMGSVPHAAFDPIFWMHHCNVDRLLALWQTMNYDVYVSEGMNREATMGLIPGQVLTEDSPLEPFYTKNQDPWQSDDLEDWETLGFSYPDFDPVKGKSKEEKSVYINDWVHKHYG
Nature of the assay: Diphenolase tyrosinase assay (enzymatic rate, L-dopa as substrate). It counts as biochemical. To be noted: for Tyrosinase activity at 200 µg/mL (fold increase): rate over 30 min at 37 °C versus vehicle control; for Tyrosinase stimulation, fold increase: enzyme rate of the sample divided by enzyme rate of the vehicle control.

Assay [2] addresses T1, mushroom tyrosinase. Nature of the assay: Tyrosinase enzyme kinetics: change in L-dopa kinetics, type of inhibition. It counts as biochemical. The settings on record: for VMAX, Michaelis-Menten plot data of the inhibitors (Figure S 3): L-dopa with inhibitor; for Change in L-dopa kinetics, Vmax: maximum enzyme velocity; for Type of inhibition: enzyme kinetic studies.
Assay [3] relates to human melanoma cells (UCT-Mel1). The assay can be described thus: Antiproliferative assay (Presto blue, 72 h). The settings on record: for IC50 / EC50: Homo sapiens; for EC50 / HillSlope, sigmoidal dose-response best-fit (Table S 10) / LogEC50, sigmoidal dose-response best-fit (Table S 10): variable slope; for EC50: bottom 0, top 100, read-out: EC50, sigmoidal dose-response best-fit (Table S 10). It counts as cell-based.

Assay [4] relates to human melanocytes (UCT-Mel-1). Nature of the assay: Masson Fontana assay (melanin produced). It counts as cell-based. To be noted: for Increase in melanin produced: 265 µM (aspalathin 119.82 µg/mL, catechin 76.92 µg/mL); for Mean Diff., Negative vs sample, melanin produced (Table S 11): Dunnett's multiple comparison versus untreated melanocytes. As to the method: The cells were cultured as previously described. The silver nitrate solution was prepared, as described by Kwon-Chung et al.[34]. The cells were fixed and treated with the AgNO3 working solution for 40 min at 56 °C (in the dark). Following incubation, the cells were treated with sodium thiosulphate (52.63 mg/mL) for 1 min and rinsed with water. The cells were counterstained using haematoxylin. The washed cells were dehydrated and fixed on microscope slides. Light microscopy images were taken using a Zeiss Primo Vert light microscope and analysed with ImageJ[34].

In assay [5] the target is T2, tyrosinase (Agaricus bisporus, UniProt C7FF04).
T2 construct: purchased Sigma-Aldrich Co. LLC, St. Louis, MO, USA
T2 sequence (C7FF04 1-392 limits assumed): as above
The assay can be described thus: Tyrosinase enzyme kinetics in the absence of the substrate (subversive substrate properties). The settings on record: for Vmax (substrate properties): Table 3. Format: biochemical, mushroom.

Assay [6] addresses tyrosinase. The settings on record: cited from earlier work; for IC50: read-out: Antityrosinase IC50, previously reported.
Where [7] appears, read: Tyrosinase stimulation EC50 ± SD, relative EC50, 50% of maximal response.
Setting [8] is: Tyrosinase stimulation EC50 ± SD, relative EC50, value in brackets.
Where [9] appears, read: compound as substrate, absence of L-dopa.
[10] abbreviates: value in brackets, read-out: Antiproliferative IC50 (converted).

Take `O=C(O)c1ccc(O)cc1` [4-Hydroxybenzoic acid (6), 4-hydroxy benzoic acid]: the IC50 in assay [1] is 1868 ± 9.34 µM. In assay [2], the “VMAX, Michaelis-Menten plot data of the inhibitors (Figure S 3)” value (from here on “VMAX … of the inhibitors (Figure S 3)”) is 35.00 ± 1.84 µmol/min and the “Change in L-dopa kinetics, Vmax” value came to 35.00 ± 1.84 µM/min.
In the case of `Cc1c2oc3c(C)ccc(C(=O)N[C@@H]4C(=O)N[C@H](C(C)C)C(=O)N5CCC[C@H]5C(=O)N(C)CC(=O)N(C)[C@@H](C(C)C)C(=O)O[C@@H]4C)c3nc-2c(C(=O)N[C@@H]2C(=O)N[C@H](C(C)C)C(=O)N3CCC[C@H]3C(=O)N(C)CC(=O)N(C)[C@@H](C(C)C)C(=O)O[C@@H]2C)c(N)c1=O` [Actinomycin D, reference compound] (I: T[dV]P[Sar][NMeV] / II: T[dV]P[Sar][NMeV]; ester I:1-I:C, II:1-II:C; linker I:N-II:N via Actinocin(9to1)), the IC50 in assay [3] (72 h, read-out: Antiproliferative IC50 ± standard deviation) was found to be 0.039 ± 0.002 µg/mL.
For `O=C(CCc1ccc(O)c(O)c1)c1c(O)cc(O)c(C2OC(CO)C(O)C(O)C2O)c1O` (stereo not drawn) [Aspalathin (1), aspalathin], in assay [1], the “Tyrosinase activity at 200 µg/mL (fold increase)” value turned out to be 1.11 fold increase. Besides, the EC50 is 265 µM in assay [1] (setting [7]), 265 µM in assay [1] (setting [8]) and 218 µg/mL (≈ 481 µM) in assay [3]. Moreover, the “Tyrosinase stimulation, fold increase” value in assay [1] was determined as 1.10 fold. Moreover, the “Increase in melanin produced” value in assay [4] (listed as Aspalathin) is given as “approximately 4.5%”; in assay [4] (listed as aspalathin) it was 4.5%. Besides, the “Mean Diff., Negative vs sample, melanin produced (Table S 11)” value in assay [4] is given as -8.382. The “Substrate catalytic efficiency, times lower than native substrate” value in assay [5] was 3–4 times. In assay [5] (setting [9]), the “Vmax (substrate properties)” value is reported as 68.7 (± 3.5) mOD/min. Also, the “Change in L-dopa kinetics, Vmax” value in assay [2] was found to be 68.73 ± 3.47 µM/min. Further, the IC50 in assay [3] (72 h, concentration where 50% of the cells are viable, 72 h, read-out: Antiproliferative IC50 ± standard deviation) is greater than 200 µg/mL; in assay [3] (setting [10]), 482 µM. Also, the “Antiproliferative IC50 ± standard deviation” value in assay [3] (concentration where 50% of the cells are viable, 72 h) worked out at 217.75 ± 1.23 µg/mL. Besides, the “HillSlope, sigmoidal dose-response best-fit (Table S 10)” value in assay [3] is recorded as -5.86. In assay [3], the “LogEC50, sigmoidal dose-response best-fit (Table S 10)” value was determined as 2.34.
Regarding `O=C(O)/C=C/c1ccc(O)c(O)c1` [Caffeic acid (2), caffeic acid], the EC50 in assay [1] (setting [7]) and in assay [1] (setting [8]) was 228 µM each time. Moreover, in assay [5] (setting [9]), the “Vmax (substrate properties)” value is recorded as 120.9 (± 15.5) mOD/min.
For the compound `Oc1cc(O)c2c(c1)O[C@H](c1ccc(O)c(O)c1)[C@@H](O)C2` [Catechin (3), (+)-catechin], in assay [1], the “Tyrosinase activity at 200 µg/mL (fold increase)” value was 0.41 fold increase and the “Tyrosinase stimulation, fold increase” value came out at 0.40 fold. Moreover, in assay [1] (listed as catechin (3)), the “Tyrosinase stimulation, fold increase” value is on record as 0.4 fold. In addition, the EC50 in assay [1] (relative EC50, 50% of maximal response, read-out: Tyrosinase stimulation EC50 ± SD (converted)) was 494 µM. Also, the EC50 in assay [1] (relative EC50, value in brackets, read-out: Tyrosinase stimulation EC50 ± SD (converted)) was 494 µM. The “Masson Fontana % increase in melanin produced” value in assay [4] (100 µg/mL, versus untreated cells) came out at 5.72%. In assay [4] (listed as catechin), the “Increase in melanin produced” value amounted to 4.5%. The “Increase in melanin produced” value in assay [4] (listed as catechin (3)) is listed as “approximately 4.5%”. The “Mean Diff., Negative vs sample, melanin produced (Table S 11)” value in assay [4] is reported as -15.08. For the same compound, the “Substrate catalytic efficiency, times higher than native substrate L-dopa” value in assay [5] amounted to 4 times. In addition, the “VMAX, subversive substrates (Figure S 5)” value in assay [5] (absence of the substrate L-dopa) amounted to 382.4 ± 7.03 µmol/min. In addition, in assay [5] (compound as substrate), the “Vmax (absence of the substrate)” value is reported as 382.4 ± 7.0 µM/min and the “kcat (catalytic constant)” value was 229.7 s⁻¹. In addition, in assay [5] (setting [9]), the Km turned out to be 471 µM and the “Vmax (substrate properties)” value is 382.4 (± 7.0) mOD/min. The “Change in L-dopa kinetics, Vmax” value in assay [2] is on record as 382.40 ± 7.03 µM/min. The IC50 in assay [3] (concentration where 50% of the cells are viable, 72 h, read-out: Antiproliferative IC50 ± standard deviation) is 166.3 ± 1.14 µg/mL. Moreover, the IC50 in assay [3] (setting [10]) was 573 µM. Besides, in assay [3], the EC50 was 166 µg/mL (≈ 573 µM); the “HillSlope, sigmoidal dose-response best-fit (Table S 10)” value is reported as -3.06; the “LogEC50, sigmoidal dose-response best-fit (Table S 10)” value came to 2.22.
With `O=C(O)/C=C/c1ccccc1` [Cinnamic acid (4), cinnamic acid], in assay [1], inhibition was half-maximal at 943.6 ± 8.1 µM (IC50) and the “Tyrosinase inhibitory activity in words” value is recorded as “Moderate inhibitory activity”. Also, in assay [2], the “VMAX … of the inhibitors (Figure S 3)” value stood at 16.82 ± 0.37 µmol/min; the Type of inhibition result is “competitive inhibition”; the “Change in L-dopa kinetics, Vmax” value turned out to be 16.82 ± 0.37 µM/min.
Regarding `COc1cc(/C=C/C(=O)O)ccc1O` [Ferulic acid (5), ferulic acid], in assay [1], the IC50 was greater than 1500 µM.
In assay [1], `O=c1c(O[C@@H]2O[C@H](CO)[C@@H](O)[C@H](O)[C@H]2O)c(-c2ccc(O)c(O)c2)oc2cc(O)cc(O)c12` [Isoquercitrin (7), isoquercitrin] showed an IC50 greater than 646 µM. Besides, the Type of inhibition entry in assay [2] is “competitive inhibition”.
Turning to `N[C@@H](Cc1ccc(O)c(O)c1)C(=O)O` [L-dopa, reference compound], the “Vmax (substrate properties)” value in assay [5] (setting [9]) is 22.8 (± 1.1) mOD/min. The “Change in L-dopa kinetics, Vmax” value in assay [2] turned out to be 22.82 ± 1.07 µM/min.
`O=C(/C=C/c1ccc(O)c(O)c1)O[C@H](Cc1ccc(O)c(O)c1)C(=O)O` [Rosmarinic acid (12), rosmarinic acid] registered an IC50 in assay [1] of 7.33 ± 3.33 µM. In addition, the IC50 in assay [6] was 4 µM. In addition, in assay [2], the “VMAX … of the inhibitors (Figure S 3)” value came out at 19.72 ± 1.01 µmol/min and the Type of inhibition result is “competitive inhibition”.
`COc1cc(C(=O)O)cc(OC)c1O` [Syringic acid (13), syringic acid] returned an IC50 in assay [1] greater than 1510 µM.
Same read-out and setting: the value for `O=c1cc(-c2ccc(O)cc2)oc2c([C@@H]3O[C@H](CO)[C@@H](O)[C@H](O)[C@H]3O)c(O)cc(O)c12` [Vitexin (15), vitexin] was greater than 694 µM.
As to `Oc1ccc(O)cc1` [hydroquinone], the IC50 in assay [6] is 19.8 ± 1.05 µM.
`CCCOC(=O)c1cc(O)c(O)c(O)c1` [n-Propyl gallate (10), n-propyl gallate]: the “Tyrosinase inhibitory activity in words” value in assay [1] is given as “Moderate inhibitory activity”. In assay [1] (read-out: Tyrosinase inhibition IC50 ± SD), the IC50 was 534.9 ± 5.09 µM. In assay [2], the “VMAX … of the inhibitors (Figure S 3)” value is 20.56 ± 1.72 µmol/min and the Type of inhibition result is on record as “non-competitive inhibition”.
Take `O=C(O)/C=C/c1ccc(O)cc1` [p-Coumaric acid (9), p-coumaric acid]: in assay [1], the IC50 was determined as 153 ± 7.01 µM and the “Tyrosinase inhibitory activity in words” value was “Moderate inhibitory activity”. Besides, in assay [2], the “VMAX … of the inhibitors (Figure S 3)” value came to 17.71 ± 0.66 µmol/min; the Type of inhibition entry is on record as “competitive inhibition”; the “Change in L-dopa kinetics, Vmax” value is on record as 17.71 ± 0.66 µM/min.
Turning to `Oc1ccc(/C=C/c2cc(O)cc(O)c2)cc1` [resveratrol], in assay [6], the “Type of tyrosinase inhibition, well-known inhibitors” value is recorded as “non-competitive” and the IC50 was 27.7 ± 1.15 µM.
